Measurements reported in ChEMBL document CHEMBL6120996, “Discovery and optimization of 1,2,4-triazole derivatives as novel ferroptosis inhibitors” (Eur J Med Chem, 2025).
Activity calls are given as the source filed them. The calls are words filed in the database; no cut-off is given here.

Key:
786-0 [1] = assay: Inhibition of RSL3-induced ferroptosis in human 786-0 cells assessed as cell viability incubated for 24 hrs by CellTiter-LumiTM assay; format: functional, cell-based; conditions: 786-0, 24 h
HT-1080 = assay: Anti-ferroptotic activity in human GPX4 knockout HT-1080 cells assessed as cell viability at 1 uM incubated for 24 hrs by CellTiter-LumiTM plus luminescent cell viability assay; format: functional, cell-based
786-0 [2] = assay: Inhibition of RSL3-induced ferroptosis in human 786-0 cells assessed as cell viability by assessing cell morphology incubated for 24 hrs by CellTiter-LumiTM plus luminescent cell viability assay; format: functional, cell-based; conditions: 786-0, 24 h
786-0 [3] = assay: Inhibition of RSL3 induced lipid-ROS accumulation in human 786-0 cells incubated for 2.5 hrs by C11-BODIPY 581/591 staining coupled with flow cytometry analysis; format: functional, cell-based; conditions: dose 0.1-1 µM
786-0 [4] = assay: Inhibition of RSL3 induced lipid-ROS accumulation in human 786-0 cells assessed as fast elimination at 1 uM measured after 0.25 to 2.5 hrs by C11-BODIPY 581/591 staining coupled with flow cytometry analysis; format: functional, cell-based; conditions: time 0.25-2.5 hrs
SK-HEP1 [5] = assay: Inhibition of RSL3 induced lipid-ROS accumulation in human SK-HEP1 cells at 1 uM incubated for 2.5 hrs by C11-BODIPY 581/591 staining coupled with flow cytometry analysis; format: functional, cell-based
SK-HEP1 [6] = assay: Inhibition of RSL3 induced lipid-ROS accumulation in human SK-HEP1 cells at 1 uM incubated for 0.5 hrs by C11-BODIPY 581/591 staining coupled with flow cytometry analysis; format: functional, cell-based
[7] = Antioxidant activity assessed as free radical scavenging activity at 50 uM incubated for 30 mins in dark by DPPH assay relative to control; format: functional
786-0 [8] = assay: Inhibition of RSL3-induced ferroptosis in human 786-0 cells assessed as cell protection by assessing cell morphology at 1 uM incubated for 24 hrs; format: functional, cell-based
[9] = Metabolic stability in human plasma assessed as half life at 1 uM by LC-MS/MS analysis; format: ADME, cell-free
[10] = Suppression of autoxidation of liposomes egg ( unknown origin) phosphatidylcholine lipids as substrate at 0.1 to 2.5 uM incubated for 5 min by C11-BODIPY 581/591 dye based fluorescent assay; format: functional; conditions: dose 0.1-2.5 µM

Row | SMILES | EC50 (786-0 [1]) [nM] | Activity (786-0 [8]) | other results
1 | COc1cccc(C2N(c3ccccc3)N=C(C(C)=O)N2c2ccc(N(C)C)cc2)c1OCc1ccc(C(C)(C)C)cc1 (stereo not drawn) | 870 |  | 
2 | CCOC(=O)c1ccc(NC2CCCCC2)c(N)c1 |  |  | Activity (HT-1080): Active; EC50 (786-0 [2]): 67 nM; inhibition (786-0 [3]): Dose-dependent-effect; inhibition (786-0 [4]): Active; inhibition (SK-HEP1 [5]): Active; inhibition (SK-HEP1 [6]): Active; Activity [7]: Active
3 | COc1cccc(C2N(c3ccccc3)N=C(C(C)=O)N2c2ccc(N(C)C)cc2)c1OCc1cccc(Cl)c1 (stereo not drawn) | 190 | Active | 
4 | Clc1cccc(CNC2=Nc3ccccc3NC23CCNCC3)c1 |  |  | inhibition (SK-HEP1 [5]): Active; inhibition (SK-HEP1 [6]): Active; Activity [7]: Active
5 | COc1cccc(C2N(c3ccccc3)N=C(C(C)=O)N2c2ccc(N(C)C)cc2)c1OCc1c(C)cc(C)cc1C (stereo not drawn) | 360 |  | 
6 | CC(=O)C1=NN(c2ccccc2)C(c2ccc(C)cc2OCc2ccc(Cl)cc2Cl)N1c1ccc(N(C)C)cc1 (stereo not drawn) | 710 | Active | 
7 | COc1ccc(COc2c(OC)cccc2C2N(c3ccccc3)N=C(C(C)=O)N2c2ccc(N(C)C)cc2)cc1OC (stereo not drawn) | 300 |  | 
8 | COc1cccc(C2N(c3ccccc3)N=C(C(C)=O)N2c2ccc(N(C)C)cc2)c1OCc1ccc(Cl)cc1Cl (stereo not drawn) | 260 | Active | 
9 | CC(C)[N+](C)(CCOC(=O)C1c2ccccc2Oc2ccccc21)C(C)C [PROPANTHELINE] |  |  | half-life at 1 µM [9]: 27.9 min
10 | COc1cc(COc2c(OC)cccc2C2N(c3ccccc3)N=C(C(C)=O)N2c2ccc(N(C)C)cc2)cc(OC)c1OC (stereo not drawn) | 170 |  | 
11 | Cc1c(C)c2c(c(C)c1O)CCC(C)(C(=O)O)O2 (stereo not drawn) |  |  | Activity [7]: Active; Activity [10]: Dose-dependent-effect

The next lines start with results.

Row | EC50 (786-0 [1]) [nM] | SMILES | Activity (786-0 [8]) | other results
12 | 130 | COc1cccc(C2N(c3ccccc3)N=C(C(C)=O)N2c2ccc(N(C)C)cc2)c1OCc1ccc(C)cc1 (stereo not drawn) | Active | 
13 | 150 | COc1cccc(C2N(c3ccccc3)N=C(C(C)=O)N2c2ccc(N(C)C)cc2)c1OCc1ccccc1C#N (stereo not drawn) | Active | 
14 | 120 | COc1cccc(C2N(c3ccccc3)N=C(C(C)=O)N2c2ccc(N(C)C)cc2)c1OCc1ccc(Cl)cc1 (stereo not drawn) | Active | 
15 | 100 | COc1cccc(C2N(c3ccccc3)N=C(C(C)=O)N2c2ccc(N(C)C)cc2)c1OCc1ccc(Br)cc1 (stereo not drawn) | Active | 
16 | 150 | COc1cccc(C2N(c3ccccc3)N=C(C(C)=O)N2c2ccc(N(C)C)cc2)c1OCc1ccc(C#N)cc1 (stereo not drawn) | Active | 
